The test deals with T1, Phafin2 (Homo sapiens, UniProt Q9H8W4).
T1 construct: gene PLEKHF2; full length (PH and FYVE domains; C-terminal tryptic peptide 224-249), pGEX4T3 GST fusion, GST removed by thrombin; N-terminus Gly-Ser-Met-Val-Asp (Gly-Ser from vector); E. coli Rosetta; 27,941 Da; monomer
T1 sequence (Q9H8W4 1-249): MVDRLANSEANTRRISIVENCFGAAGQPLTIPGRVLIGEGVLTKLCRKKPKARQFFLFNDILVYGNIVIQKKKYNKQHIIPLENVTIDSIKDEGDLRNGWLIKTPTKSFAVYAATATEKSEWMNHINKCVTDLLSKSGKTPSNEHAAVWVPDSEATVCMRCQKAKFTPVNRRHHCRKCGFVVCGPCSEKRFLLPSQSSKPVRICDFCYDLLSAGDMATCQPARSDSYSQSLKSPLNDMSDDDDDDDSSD
Briefly: SPR, liposomes on L1 chip, two-state conformational change fit. The class given is binding. The conditions noted are these: 1.5% lipid in phosphatidylcholine (DOPC) liposomes, control liposomes without it; liposome buffer 20 mM HEPES pH 7.0, 100 mM NaCl; room temperature; apparent. For orientation: SPR reads the build-up and loss of mass on a sensor chip optically.

`CCCCCCCCCCCCCCCC(=O)OC[C@H](COP(=O)(O)O[C@@H]1[C@H](O)[C@H](OP(=O)(O)O)[C@@H](O)[C@H](O)[C@H]1O)OC(=O)CCCCCCCCCCCCCCC` [dipalmitoyl PtdIns(3)P]: the Kd amounted to 0.285 ± 0.08 µM.

The record behind these values is PMC5368057, “Structural, thermodynamic, and phosphatidylinositol 3‐phosphate binding properties of Phafin2” (Protein Science : A Publication of the Protein Society, 2017).
